Laboratory results: ChEMBL document CHEMBL1136704, “3-amino-4-sulfonylpyridinone acetamide and related pyridothiadiazine thrombin inhibitors” (Bioorg Med Chem Lett, 2003)

What was measured:
[1] = species: Homo sapiens; test: Anticoagulant potency, activated partial thromboplastin time assay; format: functional
[2] = molecular target: Serine protease 1 (Homo sapiens, UniProt P07477); test: Inhibitory activity against human trypsin
[3] = species: Rattus norvegicus; test: Final plasma concentration in the rat ferric chloride thrombosis model; conditions: in vivo
[4] = molecular target: Prothrombin (Homo sapiens, UniProt P00734); test: Inhibition of human thrombin
[5] = Protein binding activity of compound in human plasma; % Free; format: ADME, cell-free
[6] = Pharmacokinetic property (Area under curve); format: ADME
[7] = Cmax value in dog; format: ADME, organism-based, Canis lupus familiaris; conditions: in vivo
[8] = Half life period was determined; conditions: dog
[9] = Pharmacokinetic property in dogs after oral administration at 1 mg/kg; format: ADME, organism-based, Canis lupus familiaris; set-up: dose 1 mg/kg, route oral; conditions: dog, in vivo
[10] = Half life period in dogs after oral administration at 1 mg/kg; format: ADME, organism-based, Canis lupus familiaris; set-up: dose 1 mg/kg, route oral; conditions: dog, in vivo
[11] = Cmax value in dogs after oral administration at 1 mg/kg; format: ADME, organism-based, Canis lupus familiaris; set-up: dose 1 mg/kg, route oral; conditions: dog, in vivo

Chain of Serine protease 1 (P07477 whole entry): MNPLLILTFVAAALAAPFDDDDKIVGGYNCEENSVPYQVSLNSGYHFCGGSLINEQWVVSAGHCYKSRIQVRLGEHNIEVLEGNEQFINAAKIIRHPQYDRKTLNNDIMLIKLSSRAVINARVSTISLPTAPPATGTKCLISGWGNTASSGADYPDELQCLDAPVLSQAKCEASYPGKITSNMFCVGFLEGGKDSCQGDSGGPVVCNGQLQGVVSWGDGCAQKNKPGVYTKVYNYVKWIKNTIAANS

| SMILES | Ki [2] [µM] | Free [5] [%] | AUC [9] [nM·h] | half-life [10] [h] | Cmax [11] [µM] | Concentration [1] [µM] | concentration [3] [µM] | Ki [4] [µM] | AUC [6] [nM·h] | Cmax [7] [µM] | half-life [8] [h] |
| --- | --- | --- | --- | --- | --- | --- | --- | --- | --- | --- | --- |
| Cc1nc(N)ccc1CNC(=O)Cn1c(C)cc(S(=O)(=O)C2CC2)c(N)c1=O | 2.8 |  |  |  |  | 1.64 |  | 0.017 |  |  |  |
| Cc1nc(N)ccc1CNC(=O)Cn1c(C)cc(S(=O)(=O)Cc2ccccc2)c(N)c1=O | 1.6 | 22 | 620 | 1.05 | 0.45 | 0.47 |  |  |  |  |  |
| Cc1nc(N)ccc1CNC(=O)Cn1c(C)cc(S(=O)(=O)CC2CCC2)c(N)c1=O | 0.55 | 45 |  |  |  | 0.23 | 0.68 | 0.0002 | 2580 | 0.57 | 0.783 |
| Cc1nc(N)ccc1CNC(=O)Cn1c(C)cc(S(=O)(=O)CC2CC2)c(N)c1=O | 1.9 | 70 |  |  |  | 0.4 | 0.55 | 0.0018 | 800 | 0.37 | 1.1 |
| Cc1nc(N)ccc1CNC(=O)Cn1c(C)cc(S(=O)(=O)CC2CCCC2)c(N)c1=O | 0.63 | 29 |  |  |  | 0.4 | 0.53 | 0.0012 |  |  |  |
| Cc1nc(N)ccc1CNC(=O)Cn1c(C)cc(S(=O)(=O)c2ccccc2)c(N)c1=O | 0.5 | 19 |  |  |  | 0.66 | 0.57 | 0.0038 |  |  |  |
| Cc1nc(N)ccc1CNC(=O)Cn1c(C)cc(S(=O)(=O)NCC2CC2)c(N)c1=O | 1 | 53 |  |  |  | 0.75 |  |  |  |  |  |

Continued, in another order:

| Ki [2] [µM] | Free [5] [%] | AUC [9] [nM·h] | half-life [10] [h] | Cmax [11] [µM] | SMILES | Concentration [1] [µM] | concentration [3] [µM] | Ki [4] [µM] | AUC [6] [nM·h] | Cmax [7] [µM] | half-life [8] [h] |
| --- | --- | --- | --- | --- | --- | --- | --- | --- | --- | --- | --- |
| 0.26 | 38 |  |  |  | Cc1nc(N)ccc1CNC(=O)Cn1c(C)cc(S(=O)(=O)C2CCCCC2)c(N)c1=O | 0.75 | 0.65 | 0.003 |  |  |  |
| 10 |  |  |  |  | Cc1nc(N)ccc1CNC(=O)Cn1c(C)cc2c(c1=O)NCN(C1CC1)S2(=O)=O | 0.75 |  |  |  |  |  |
| 0.74 | 23 |  |  |  | Cc1nc(N)ccc1CNC(=O)Cn1c(C)cc(S(=O)(=O)NCC2CCC2)c(N)c1=O | 0.47 | 0.64 | 0.00075 |  |  |  |
| 0.8 |  |  |  |  | Cc1ccc(S(=O)(=O)c2cc(C)n(CC(=O)NCc3ccc(N)nc3C)c(=O)c2N)cc1 |  |  | 0.094 |  |  |  |
| 6.1 | 25 |  |  |  | Cc1nc(N)ccc1CNC(=O)Cn1c(C)cc2c(c1=O)NCN(CC1CC1)S2(=O)=O | 0.79 |  | 0.0021 | 2140 | 0.59 | 2.27 |
| 6.3 |  |  |  |  | Cc1nc(N)ccc1CNC(=O)Cn1c(C)cc2c(c1=O)NCN(C1CCC1)S2(=O)=O | 1.11 |  |  |  |  |  |
| 0.34 | 40 |  |  |  | Cc1nc(N)ccc1CNC(=O)Cn1c(C)cc(S(=O)(=O)c2cccs2)c(N)c1=O | 0.39 | 0.43 | 0.0017 |  |  |  |
| 2.9 |  |  |  |  | Cc1nc(N)ccc1CNC(=O)Cn1c(C)cc(S(=O)(=O)NC2CC2)c(N)c1=O | 0.85 |  |  |  |  |  |
| 1.6 |  |  |  |  | Cc1nc(N)ccc1CNC(=O)Cn1c(C)cc2c(c1=O)NCN(CC1CCC1)S2(=O)=O | 0.92 |  |  |  |  |  |
| 1.1 | 45 |  |  |  | Cc1nc(N)ccc1CNC(=O)Cn1c(C)cc(S(=O)(=O)NC2CCC2)c(N)c1=O | 0.35 |  |  |  |  |  |
